We go through 26 compounds from patent US20250171465A1, “AKT INHIBITORS” (Stablix, Inc., priority 2023, published 2025).

Format in all cases: cell-based
The test system of one test is MDAMB468.1. As to the kind of experiment: Cell Titer Glo (CTG) proliferation assay, MDA-MB-468. The note with it: Homo sapiens, MDA-MB-468; MDAMB468.1 cells, 72.0 hrs.; read-out: AVE CTG Proliferation MDAMB468.1 72.0 hrs. The method, then: (§1) Seed cells in 40 μL of cell culture media into each well of 384-well cell culture plate, spin them at room temperature at 1,000 RPM for 1 minute and then transfer the plates into 37° C. 5% CO2 incubator overnight. Next day, treat cells with 40 nL of diluted compound and return to incubator. After compound treatment for 3 days, Add 30 μL of CellTiter-Glo reagent (Promega) into each well to be detected. Then place the plates at room temperature for 30 min followed by reading on EnVision. Inhibition activity calculated as % DMSO=100×(LumSample-Lum low control)/(Lum high control-Lum low control) where high control is from cells treated with 0.1% DMSO and Low control obtained from PBS only. Use XLFit (equation 201) to calculate IC50 (A+ ((B−A)/(1[…]((x/C)^D)))) where A: Bottom, B: Top, C: IC50, D: Slope.
For orientation: ATP-based viability assays read luminescence as a measure of living cells.

The next test concerns KU1919.1. The test can be described thus: Cell Titer Glo (CTG) proliferation assay, KU1919. As to conditions: Homo sapiens, KU-19-19; KU1919.1 cells, 72.0 hrs.; read-out: AVE CTG Proliferation KU1919.1 72.0 hrs. Put shortly: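 After overnight seeding at 37 °C, 5% CO2, cells were exposed to compound for 3 days. Viability read by CellTiter-Glo luminescence after 30 min at room temperature.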

In a further test the test system is MDAMB231.1. The test can be described thus: Cell Titer Glo (CTG) proliferation assay, MDA-MB-231. As to conditions: Homo sapiens, MDA-MB-231; MDAMB231.1 cells, 72 hrs.; read-out: AVE CTG Proliferation MDAMB231.1 72 hrs. The method, then:
as §1

In the case of `C[C@@H]1C[C@@H](O)c2ncnc(N3CCN(C(=O)[C@H](CNCCNC(=O)CN4CCC(CN5CCN(C(=O)c6cccc(C7CCCN(C(=O)CNCc8ccc(F)cc8F)C7)c6)CC5)CC4)c4ccc(Cl)cc4)CC3)c21` (stereo partly drawn) [Compound I-207], the IC50 in the test with MDAMB468.1, in the test with KU1919.1 and with MDAMB231.1 was more than 10 µM throughout.

Regarding `C[C@@H]1C[C@@H](O)c2ncnc(N3CCN(C(=O)[C@H](CNCCNC(=O)CN4CCC(OC5CCN(C(=O)[C@H](NC(=O)c6cccc(C7CCCN(C(=O)CNCc8ccc(F)cc8F)C7)c6)C6CCCCC6)CC5)CC4)c4ccc(Cl)cc4)CC3)c21` (stereo partly drawn) [Compound I-208], the IC50 in the test on MDAMB468.1, in the test with KU1919.1 and with MDAMB231.1 was 1 to 5 µM throughout.

Turning to `C[C@@H]1C[C@@H](O)c2ncnc(N3CCN(C(=O)[C@H](CNCCNC(=O)CN4CCC(OC5CCN(C(=O)[C@H](NC(=O)c6cccc(C7CCCN(C(=O)CNC8CC8)C7)c6)C6CCCCC6)CC5)CC4)c4ccc(Cl)cc4)CC3)c21` (stereo partly drawn) [Compound I-209], the IC50 in the test with MDAMB468.1, with KU1919.1 and in the test with MDAMB231.1 was 5 to 10 µM each time.

Turning to `C[C@@H]1C[C@@H](O)c2ncnc(N3CCN(C(=O)C(CN4CCC(CN5CCN(C(=O)[C@H](NC(=O)c6cccc([C@H]7CCCN(C(=O)CNC8CC8)C7)c6)C6CCCCC6)CC5)CC4)c4ccc(Cl)cc4)CC3)c21` (stereo partly drawn) [Compound I-211], the figures for the IC50 in the test on MDAMB468.1, with KU1919.1 and with MDAMB231.1 were 1 to 5 µM, 0.5 to 1 µM and 1 to 5 µM, respectively.

On to `CCc1cccc(-c2cnc(C(=O)N3CCN(CC4CCN(CC(=O)NCCNC[C@@H](C(=O)N5CCN(c6ncnc7c6[C@H](C)C[C@H]7O)CC5)c5ccc(Cl)cc5)CC4)CC3)c(N)c2)c1` [Compound I-213], for which the IC50 in the test with MDAMB468.1, with KU1919.1 and in the test with MDAMB231.1 was 1 to 5 µM throughout.

Consider `CCOc1cc(OC)ccc1CNCC(=O)N1CCC[C@H](c2cccc(C(=O)N[C@@H](C(=O)N3CCN(CC4CCN(CC(C(=O)N5CCN(c6ncnc7c6[C@H](C)C[C@H]7O)CC5)c5ccc(Cl)cc5)CC4)CC3)C3CCCCC3)c2)C1` (stereo partly drawn) [Compound I-219], for which the IC50 in the test with MDAMB468.1 was 1 to 5 µM; in the test with KU1919.1 it was 0.5 to 1 µM; with MDAMB231.1, 1 to 5 µM.

Consider `NC1(C(=O)N[C@@H](CCN2CCN(C(=O)CN3CCC(OC4CCN(C(=O)[C@H](NC(=O)c5cc(C6CCCN(C(=O)C7CC7)C6)ccc5F)C5CCCCC5)CC4)CC3)CC2)c2ccc(Cl)cc2)CCN(c2ncnc3[nH]ccc23)CC1` (stereo partly drawn) [Compound I-224], for which the IC50 in the test with MDAMB468.1, in the test with KU1919.1 and in the test with MDAMB231.1 was 1 to 5 µM in each case.

As to `NC1(C(=O)N[C@@H](CCN2CCN(C(=O)CN3CCC(OC4CCN(C(=O)[C@H](NC(=O)c5cc(C6CN(C(=O)CNCc7ccc(F)cc7F)C6)ccc5F)C5CCCCC5)CC4)CC3)CC2)c2ccc(Cl)cc2)CCN(c2ncnc3[nH]ccc23)CC1` [Compound I-226], the IC50 with MDAMB468.1 lay within 1 to 5 µM; in the test on KU1919.1, 0.5 to 1 µM; in the test with MDAMB231.1, 1 to 5 µM.

For `NC1(C(=O)N[C@@H](CCN2CCN(C(=O)CN3CCC(OC4CCN(C(=O)[C@H](NC(=O)c5cc(C6CN(C(=O)C7CC7)C6)ccc5F)C5CCCCC5)CC4)CC3)CC2)c2ccc(Cl)cc2)CCN(c2ncnc3[nH]ccc23)CC1` [Compound I-227], the IC50 in the test on MDAMB468.1, in the test with KU1919.1 and in the test on MDAMB231.1 was 1 to 5 µM in each case.

`NC1(C(=O)N[C@@H](CCN2CCN(C(=O)CN3CCC(OC4CCN(C(=O)[C@H](NC(=O)c5ccc(C6CN(C(=O)CNCc7ccc(F)cc7F)C6)cc5)C5CCCCC5)CC4)CC3)CC2)c2ccc(Cl)cc2)CCN(c2ncnc3[nH]ccc23)CC1` [Compound I-230]: the IC50 in the test on MDAMB468.1, in the test on KU1919.1 and in the test on MDAMB231.1 was 1 to 5 µM in each case.

On to `N[C@@H](C(=O)N1CCC(OC2CCN(CC(=O)N3CCN(CC[C@H](NC(=O)C4(N)CCN(c5ncnc6[nH]ccc56)CC4)c4ccc(Cl)cc4)CC3)CC2)CC1)C1CCCCC1` [Compound I-235], for which the IC50 in the test on MDAMB468.1, in the test on KU1919.1 and in the test with MDAMB231.1 was more than 10 µM in each case.

For `NC1(C(=O)N[C@@H](CCN2CCN(C(=O)CN3CCC(OC4CCN(C(=O)[C@H](NC(=O)c5cccc(C6CN(C(=O)C7CC7)C6)c5)C5CCCCC5)CC4)CC3)CC2)c2ccc(Cl)cc2)CCN(c2ncnc3[nH]ccc23)CC1` [Compound I-240], the IC50 in the test on MDAMB468.1, with KU1919.1 and with MDAMB231.1 was 1 to 5 µM throughout.

With `NC1(C(=O)N[C@@H](CCN2CCN(C(=O)CN3CCC(OC4CCN(C(=O)[C@H](NC(=O)c5cccc(C6CN(C(=O)CNC7CC7)C6)c5)C5CCCCC5)CC4)CC3)CC2)c2ccc(Cl)cc2)CCN(c2ncnc3[nH]ccc23)CC1` [Compound I-241], the IC50 fell in the range of 1 to 5 µM in the test on MDAMB468.1, 1 to 5 µM in the test with KU1919.1 and 5 to 10 µM with MDAMB231.1.

`NC1(C(=O)N[C@@H](CCN2CCC(OC3CCN(C(=O)c4cccc(C5CCCN(C(=O)C6CC6)C5)c4)CC3)CC2)c2ccc(Cl)cc2)CCN(c2ncnc3[nH]ccc23)CC1` (stereo partly drawn) [Compound I-248]: the IC50 with MDAMB468.1 is 5 to 10 µM; in the test with KU1919.1, 1 to 5 µM; in the test on MDAMB231.1, 5 to 10 µM.

Consider `NC1(C(=O)N[C@@H](CCN2CCC(OC3CCN(C(=O)c4cccc(C5CCCN(C(=O)CNC6CC6)C5)c4)CC3)CC2)c2ccc(Cl)cc2)CCN(c2ncnc3[nH]ccc23)CC1` (stereo partly drawn) [Compound I-252], for which the IC50 in the test with MDAMB468.1 is 5 to 10 µM; in the test with KU1919.1, 5 to 10 µM; with MDAMB231.1, more than 10 µM.

Take `NC1(C(=O)N[C@@H](CCN2CCN(C(=O)CN3CCC(OC4CCN(C(=O)[C@H](NC(=O)c5cccc(C6CCCN(C(=O)CNCc7ccc(F)cc7F)C6)c5)C5CCCCC5)CC4)CC3)CC2)c2ccc(Cl)cc2)CCN(c2ncnc3[nH]ccc23)CC1` (stereo partly drawn) [Compound I-258]: the IC50 fell in the range of 1 to 5 µM with MDAMB468.1, 0.5 to 1 µM in the test on KU1919.1 and 1 to 5 µM in the test with MDAMB231.1.

Consider `NC1(C(=O)N[C@@H](CCN2CCN(C(=O)CN3CCC(OC4CCN(C(=O)[C@H](NC(=O)c5cccc(C6CCCN(C(=O)CNC7CC7)C6)c5)C5CCCCC5)CC4)CC3)CC2)c2ccc(Cl)cc2)CCN(c2ncnc3[nH]ccc23)CC1` (stereo partly drawn) [Compound I-259], for which the IC50 with MDAMB468.1, in the test on KU1919.1 and with MDAMB231.1 was 1 to 5 µM in each case.

Turning to `CCc1cccc(-c2cc(F)c(C(=O)N3CCC(OC4CCN(CC(=O)NCCNC[C@@H](C(=O)N5CCN(c6ncnc7c6[C@H](C)C[C@H]7O)CC5)c5ccc(Cl)cc5)CC4)CC3)c(F)c2)c1` [Compound I-261], the IC50 in the test on MDAMB468.1, in the test with KU1919.1 and with MDAMB231.1 was 1 to 5 µM each time.

Consider `CCc1cccc(-c2cc(F)c(C(=O)N3CCN(CC4CCN(CC(C(=O)N5CCN(c6ncnc7c6[C@H](C)C[C@H]7O)CC5)c5ccc(Cl)cc5)CC4)CC3)c(F)c2)c1` (stereo partly drawn) [Compound I-262], for which the IC50 in the test with MDAMB468.1 was in the range of 1 to 5 µM; in the test with KU1919.1, 0.5 to 1 µM; in the test on MDAMB231.1, 1 to 5 µM.

With `C[C@@H]1C[C@@H](O)c2ncnc(N3CCN(C(=O)C(CN4CCC(CN5CCN(C(=O)[C@H](NC(=O)c6cccc([C@H]7CCCN(C(=O)C8CC8)C7)c6F)C6CCCCC6)CC5)CC4)c4ccc(Cl)cc4)CC3)c21` (stereo partly drawn) [Compound I-277], the IC50 with MDAMB468.1, in the test with KU1919.1 and in the test on MDAMB231.1 was less than 0.5 µM each time.

On to `C[C@@H]1C[C@@H](O)c2ncnc(N3CCN(C(=O)C(CN4CCC(CN5CCN(C(=O)[C@H](NC(=O)c6cccc([C@@H]7CCCN(C(=O)C8CC8)C7)c6F)C6CCCCC6)CC5)CC4)c4ccc(Cl)cc4)CC3)c21` (stereo partly drawn) [Compound I-278], for which the IC50 in the test with MDAMB468.1 was in the range of 1 to 5 µM; in the test with KU1919.1, 0.5 to 1 µM; in the test on MDAMB231.1 it was 1 to 5 µM.

Regarding `NC1(C(=O)N[C@@H](CCN2CCC(OC3CCN(C(=O)[C@H](NC(=O)c4cccc(C5CCCN(C(=O)CNCc6ccc(F)cc6F)C5)c4F)C4CCCCC4)CC3)CC2)c2ccc(Cl)cc2)CCN(c2ncnc3[nH]ccc23)CC1` (stereo partly drawn) [Compound I-279], the IC50 was in the range of 1 to 5 µM in the test on MDAMB468.1, 0.5 to 1 µM in the test on KU1919.1 and 1 to 5 µM in the test with MDAMB231.1.

`NC1(C(=O)N[C@@H](CCN2CCC(OC3CCN(C(=O)c4c(F)cc(-c5ccccc5)cc4F)CC3)CC2)c2ccc(Cl)cc2)CCN(c2ncnc3[nH]ccc23)CC1` [Compound I-281]: the IC50 was 1 to 5 µM in the test with MDAMB468.1, 1 to 5 µM in the test on KU1919.1 and less than 0.5 µM with MDAMB231.1.

Regarding `CC1(C(=O)N2CCCC(c3cccc(C(=O)N[C@@H](C(=O)N4CCC(OC5CCN(CC[C@H](NC(=O)C6(N)CCN(c7ncnc8[nH]ccc78)CC6)c6ccc(Cl)cc6)CC5)CC4)C4CCCCC4)c3F)C2)CC1` (stereo partly drawn) [Compound I-282], the IC50 in the test on MDAMB468.1, in the test on KU1919.1 and in the test on MDAMB231.1 was 1 to 5 µM each time.

`NC1(C(=O)N[C@@H](CCN2CCC(OC3CCN(C(=O)[C@H](NC(=O)c4cccc(C5CCCN(C(=O)CNC6CC6)C5)c4F)C4CCCCC4)CC3)CC2)c2ccc(Cl)cc2)CCN(c2ncnc3[nH]ccc23)CC1` (stereo partly drawn) [Compound I-283]: the IC50 in the test on MDAMB468.1, in the test on KU1919.1 and in the test with MDAMB231.1 was 1 to 5 µM each time.

Turning to `CCc1cccc(-c2cnc(C(=O)N3CCN(CC45CCC(NCC(=O)NCCNC[C@@H](C(=O)N6CCN(c7cccc8c7[C@H](C)C[C@H]8O)CC6)c6ccc(Cl)cc6)(CC4)CO5)CC3)c(NC(=O)OC(C)(C)C)c2)c1` [Compound I-305], the IC50 in the test with MDAMB468.1, with KU1919.1 and in the test with MDAMB231.1 was 1 to 5 µM throughout.
